Test results as given in ChEMBL document CHEMBL2074379, “Possible involvement of organic anion transporter 2 on the interaction of theophylline with erythromycin in the human liver” (Drug Metab Dispos, 2005).

How the values were obtained:
Format in all cases: functional, cell-based
Conditions in all cases: oocyte
[1] = biological target: T1, Solute carrier family 22 member 7 (Homo sapiens, UniProt Q9Y694); test: TP_TRANSPORTER: inhibition of theophylline uptake in OAT2-expressing oocytes
T1 sequence (Q9Y694 whole entry): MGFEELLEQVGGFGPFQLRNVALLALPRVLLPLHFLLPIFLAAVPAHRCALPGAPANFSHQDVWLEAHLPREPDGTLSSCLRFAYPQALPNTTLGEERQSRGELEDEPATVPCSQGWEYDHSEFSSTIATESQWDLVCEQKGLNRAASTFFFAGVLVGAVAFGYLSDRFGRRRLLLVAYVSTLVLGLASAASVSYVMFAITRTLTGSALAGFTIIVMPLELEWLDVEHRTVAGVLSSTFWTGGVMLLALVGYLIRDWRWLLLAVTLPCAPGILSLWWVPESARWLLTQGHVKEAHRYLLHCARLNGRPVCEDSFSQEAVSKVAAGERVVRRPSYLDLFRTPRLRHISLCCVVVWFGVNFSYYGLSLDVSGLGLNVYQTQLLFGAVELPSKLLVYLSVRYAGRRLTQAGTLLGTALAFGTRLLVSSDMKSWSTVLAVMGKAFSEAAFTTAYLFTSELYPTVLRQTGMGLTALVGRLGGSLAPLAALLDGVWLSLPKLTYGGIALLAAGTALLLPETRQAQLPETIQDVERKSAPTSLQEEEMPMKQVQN

[2] = biological target: T1, Solute carrier family 22 member 7; test: TP_TRANSPORTER: uptake in OAT2-expressing oocytes
[3] = biological target: T1, Solute carrier family 22 member 7; test: TP_TRANSPORTER: inhibition of erythromycin uptake in OAT2-expressing oocytes

Activity [1]	SMILES	Activity [2]	Activity [3]
inhibitor []	CC[C@H]1OC(=O)[C@H](C)[C@@H](O[C@H]2C[C@@](C)(OC)[C@@H](O)[C@H](C)O2)[C@H](C)[C@@H](O[C@@H]2O[C@H](C)C[C@H](N(C)C)[C@H]2O)[C@](C)(OC)C[C@@H](C)C(=O)[C@H](C)[C@@H](O)[C@]1(C)O [CLARITHROMYCIN]		
inhibitor []	CC[C@H]1OC(=O)[C@H](C)[C@@H](O[C@H]2C[C@@](C)(OC)[C@@H](O)[C@H](C)O2)[C@H](C)[C@@H](O[C@@H]2O[C@H](C)C[C@H](N(C)C)[C@H]2O)[C@](C)(O)C[C@@H](C)C(=O)[C@H](C)[C@@H](O)[C@]1(C)O [ERYTHROMYCIN]	substrate []	
	Cn1c(=O)c2[nH]cnc2n(C)c1=O.O [THEOPHYLLINE]	substrate []	inhibitor []
